US11352352B2, “Aminopyrimidine compound, preparation method therefor and use thereof” (BEIJING ADAMADLE BIOTECHNOLOGY LIMITED LIABILITY COMPANY, priority 2017, dated 2022)

How the values were obtained:
Test in all cases: Cell proliferation inhibition experiment, CellTiter-Glo (CTG) method
Format in all cases: cell-based
PC-9 = conditions: Homo sapiens, PC-9, 72 h, PC-9 cells, 3 days
Outline: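 Cells in log-phase growth (viability above 90% by trypan blue) were seeded at 90 μL per well in black-walled, clear-bottom 96-well plates and incubated overnight at 37° C., 5% CO2. A T0 plate was read the next day. Test compounds were added at nine concentrations in triplicate with a solvent control. Viability was measured by CellTiter-Glo luminescence on EnVision, and IC50 came from non-linear S-curve fitting in GraphPad Prism 5.0.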

NCI-H1975 = conditions: for IC50: Homo sapiens, NCI-H1975, 72 h, NCI-H1975 cells, CTG, 3 days; for A-431/NCI-H1975 Selectivity: ratio of A-431 IC50 to NCI-H1975 IC50
Outline: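 NCI-H1975 cells with viability above 90% by trypan blue were seeded at 90 μL per well in black 96-well plates and incubated overnight at 37° C., 5% CO2. Compounds were added at nine concentrations in triplicate, and viability was measured with CellTiter-Glo luminescence on EnVision. IC50 came from non-linear S-curve fitting in GraphPad Prism 5.0.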

A-431 = conditions: Homo sapiens, A-431, 72 h, A-431 cells, 3 days
Outline: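 CTG luminescence measured after 3-day compound exposure, with a T0 plate read the day after seeding and solvent wells as control. Nine concentrations, 3-fold steps, in triplicate: A-431 from 30 μM, NCI-H1975 and PC-9 from 1.111 μM. IC50 derived by non-linear S-curve regression.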

Row | SMILES | IC50 (PC-9) [nM] | IC50 (NCI-H1975) [nM] | A-431/NCI-H1975 Selectivity (NCI-H1975) | IC50 (A-431) [nM]
1 | C=CC(=O)Nc1cc(Nc2cc(-c3ccc4cnn(C)c4c3)ncn2)c(OC)cc1N1CCN(C2CCOC2)CC1 (stereo not shown) [compound 215] | 15.4 | 18.4 | 78.1 | 1440
2 | C=CC(=O)Nc1cc(Nc2cc(-c3ccc4c(cnn4C)c3)ncn2)c(OCC)cc1N(C)CCN(C)C [compound 289] | 24.1 | 12.2 | 85.1 | 1040
3 | C=CC(=O)Nc1cc(Nc2cc(-c3ccc4c(cnn4C)c3)ncn2)c(OC)cc1N(C)CCN1CCCCC1 [compound 37] | 79.8 | 67.5 | 25.5 | 1720
4 | C=CC(=O)Nc1cc(Nc2cc(-c3ccc4c(cnn4C)c3)ncn2)c(OC)cc1C(=O)N(C)CCN(C)C [compound 286] | 30.9 | 40.1 | 20.0 | 804
5 | C=CC(=O)Nc1cc(Nc2cc(-c3ccc4c(c3)ncn4C)ncn2)c(OC)cc1OCCN1CCN(C)CC1 [compound 132] | 118 | 42.3 | 48.3 | 2040
6 | C=CC(=O)Nc1cc(Nc2cc(-c3ccc4c(cnn4C)c3)ncn2)c(OC)cc1N1CCC(N2CCC(OC)C2)CC1 (stereo not shown) [compound 202] | 12.7 | 10.7 | 74.6 | 798
7 | C=CC(=O)Nc1cc(Nc2cc(-c3ccc4c(cnn4C)c3)ncn2)c(OC)cc1N1CCC(N(CC)CC)CC1 [compound 137] | 7.6 | 4.8 | – | 597
8 | C=CC(=O)Nc1cc(Nc2cc(-c3ccc4cnn(C)c4c3)ncn2)c(OC)cc1N1C[C@@H](C)N(C)[C@@H](C)C1 [compound 154] | 36.4 | 34.7 | – | 1400
9 | C=CC(=O)Nc1cc(Nc2nccc(-c3ccc4c(cnn4C)c3)n2)c(OC(F)F)cc1N(C)CCN1CCN(C)CC1 [compound 245] | 70.7 | 61.6 | 38.6 | 2380
10 | C=CC(=O)Nc1cc(Nc2cc(-c3ccc4cnn(C)c4c3)ncn2)c(OC(F)F)cc1N1C[C@@H](C)N[C@@H](C)C1 [compound 277] | 21.9 | 52.9 | 37.9 | 2010
11 | C=CC(=O)Nc1cc(Nc2cc(-c3ccc4cnn(C)c4c3)ncn2)c(OC)cc1N(C)CCN(CC)CC [compound 80] | 35.9 | 43 | 13.6 | 586
12 | C=CC(=O)Nc1cc(Nc2cc(-c3ccc4c(cnn4C)c3)ncn2)c(OC(F)F)cc1N(C)CCN1CCN(C)CC1 [compound 67] | 15 | 14.6 | 61.0 | 891
